50 compounds from PMC11995724, “Antibiotic target discovery by integrated phenotypic and activity-based profiling of electrophilic fragments” (Cell chemical biology, 2025) can be followed below.

Structures can show the parent of a compound that is named as a salt.

A short description of the data set: in vitro. The conditions noted are these: human, hek293t cells.
A word on the viability: it is a read-out of living cells in per cent, often relative to untreated cells. With `COc1ccc2c(c1)CCCN(C(=O)C(C)Cl)C2` (centres unmarked) [5-D17, 2-chloro-1-(7-methoxy-2,3,4,5-tetrahydro-1H-2-benzazepin-2-yl)propan-1-one], the viability at 48 h, 25 µM turned out to be 90.9%.

Take `O=C(CCl)Nc1nc(-c2cccs2)cs1` [5-D18, 2-chloro-N-[4-(thiophen-2-yl)-1,3-thiazol-2-yl]acetamide]: the viability at 48 h, 25 µM was 0.312%.

As for `CC(Cl)C(=O)Nc1ccc(C2CC(=O)NC(=O)N2)cc1` (centres unmarked) [5-D19, 2-chloro-N-[4-(2,6-dioxo-1,3-diazinan-4-yl)phenyl]propanamide], the viability at 48 h, 25 µM stood at 92.5%.

Regarding `N#CCCN(Cc1ccco1)C(=O)CCl` [5-D20, 2-chloro-N-(2-cyanoethyl)-N-[(furan-2-yl)methyl]acetamide], the viability at 48 h, 25 µM is 1.25%.

With `Cc1ccc2nc(-c3ccc(F)cc3)c(CNC(=O)C(C)Cl)n2c1` (centres unmarked) [5-D21, 2-chloro-N-{[2-(4-fluorophenyl)-6-methylimidazo[1,2-a]pyridin-3-yl]methyl}propanamide], the viability at 48 h, 25 µM was 113%.

Turning to `Cc1ccc(NC(=O)C(C)Cl)cc1S(=O)(=O)N1CCOCC1` (centres unmarked) [5-D22, 2-chloro-N-[4-methyl-3-(morpholine-4-sulfonyl)phenyl]propanamide], the viability at 48 h, 25 µM came to 77.8%.

With `CN(C1CCCCC1)S(=O)(=O)c1ccc(NC(=O)CCl)cc1` [5-E03, 2-chloro-N-{4-[cyclohexyl(methyl)sulfamoyl]phenyl}acetamide], the viability at 48 h, 25 µM was -0.149%.

For the compound `Cc1noc(CC(NC(=O)CCl)c2ccccc2)n1` (centres unmarked) [5-E04, 2-chloro-N-[2-(3-methyl-1,2,4-oxadiazol-5-yl)-1-phenylethyl]acetamide], the viability at 48 h, 25 µM worked out at 29.3%.

With `COc1cccc(CN(C(=O)CCl)C23CC4CC(CC(C4)C2)C3)c1` [5-E05, N-(adamantan-1-yl)-2-chloro-N-[(3-methoxyphenyl)methyl]acetamide], the viability at 48 h, 25 µM stood at 0.151%.

In the case of `CC(C)N(Cc1ccc(N(C)C)cc1)C(=O)CCl` [5-E06, 2-chloro-N-{[4-(dimethylamino)phenyl]methyl}-N-(propan-2-yl)acetamide], the viability at 48 h, 25 µM stood at 1.94%.

As to `Cc1ccc(S(=O)(=O)NC2CN(C(=O)CCl)C2)cc1` [5-E07, N-[1-(2-chloroacetyl)azetidin-3-yl]-4-methylbenzene-1-sulfonamide], the viability at 48 h, 25 µM was found to be 0.324%.

As for `O=C(CCl)N1CCCCC1Cn1ccnn1` (centres unmarked) [5-E08, 2-chloro-1-{2-[(1H-1,2,3-triazol-1-yl)methyl]piperidin-1-yl}ethan-1-one], the viability at 48 h, 25 µM stood at 28%.

In the case of `O=C(CCl)NC1CC(=O)N(c2cccc(C(F)(F)F)c2)C1` (centres unmarked) [5-E09, 2-chloro-N-{5-oxo-1-[3-(trifluoromethyl)phenyl]pyrrolidin-3-yl}acetamide], the viability at 48 h, 25 µM was found to be 0.777%.

For the compound `O=C(CCl)N1CCOCC1c1noc(-c2ccccc2)n1` (centres unmarked) [5-E10, 2-chloro-1-[3-(5-phenyl-1,2,4-oxadiazol-3-yl)morpholin-4-yl]ethan-1-one], the viability at 48 h, 25 µM was 1.07%.

As for `CC(NC(=O)CCl)c1cn(C)c2cc(Cl)ccc12` (centres unmarked) [5-E11, 2-chloro-N-[1-(6-chloro-1-methyl-1H-indol-3-yl)ethyl]acetamide], the viability at 48 h, 25 µM worked out at 0.196%.

For `COc1cc(CN(C(=O)CCl)C2CCCOC2)ccc1C` (centres unmarked) [5-E12, 2-chloro-N-[(3-methoxy-4-methylphenyl)methyl]-N-(oxan-3-yl)acetamide], the viability at 48 h, 25 µM turned out to be 0.549%.

With `CN(C)S(=O)(=O)c1cc(NC(=O)CCl)ccc1Cl` [5-E13, 2-chloro-N-[4-chloro-3-(dimethylsulfamoyl)phenyl]acetamide], the viability at 48 h, 25 µM was found to be 0.0364%.

As for `Cc1cc(CN(C(=O)CCl)c2ccc(F)cc2)nn1C` [5-E14, 2-chloro-N-[(1,5-dimethyl-1H-pyrazol-3-yl)methyl]-N-(4-fluorophenyl)acetamide], the viability at 48 h, 25 µM turned out to be 0.639%.

Regarding `O=C(CCl)NCC1(c2ccccc2)CC1` [5-E15, 2-chloro-N-[(1-phenylcyclopropyl)methyl]acetamide], the viability at 48 h, 25 µM is 3.61%.

For `Cc1cc(C(C)N(Cc2c(C)noc2C)C(=O)CCl)c(C)o1` (centres unmarked) [5-E16, 2-chloro-N-[(3,5-dimethyl-1,2-oxazol-4-yl)methyl]-N-[1-(2,5-dimethylfuran-3-yl)ethyl]acetamide], the viability at 48 h, 25 µM is 1.18%.

Consider `CC(C)(C)C1CCc2c(sc(NC(=O)CCl)c2C#N)C1` (centres unmarked) [5-E17, N-(6-tert-butyl-3-cyano-4,5,6,7-tetrahydro-1-benzothiophen-2-yl)-2-chloroacetamide], for which the viability at 48 h, 25 µM turned out to be 0.117%.

Regarding `O=C(CCl)N1CCN(C2CCCN(C3CCOCC3)C2=O)CC1` (centres unmarked) [5-E18, 3-[4-(2-chloroacetyl)piperazin-1-yl]-1-(oxan-4-yl)piperidin-2-one], the viability at 48 h, 25 µM was found to be 9.07%.

`O=C(CCl)NC1CCN(Cc2ccccc2)CC1` [5-E19, N-(1-benzylpiperidin-4-yl)-2-chloroacetamide hydrochloride]: the viability at 48 h, 25 µM stood at 1.13%.

As for `O=C(CCl)N1CCC(C2CCCN(C(=O)C(F)(F)F)C2)CC1` (centres unmarked) [5-E20, 1-[1'-(2-chloroacetyl)-[3,4'-bipiperidin]-1-yl]-2,2,2-trifluoroethan-1-one], the viability at 48 h, 25 µM was found to be 1.17%.

Turning to `CC(Cl)C(=O)Nc1sccc1C#N` (centres unmarked) [5-E21, 2-chloro-N-(3-cyanothiophen-2-yl)propanamide], the viability at 48 h, 25 µM stood at 59%.

Turning to `O=C(CCl)N1C[C@@H]2C[C@H]1CN2c1ccccc1` [5-E22, 2-chloro-1-[(1S,4S)-5-phenyl-2,5-diazabicyclo[2.2.1]heptan-2-yl]ethan-1-one], the viability at 48 h, 25 µM was 0.453%.

Take `CNC(=O)C(F)(F)C1(O)CCN(C(=O)CCl)CC1` [5-F03, 2-[1-(2-chloroacetyl)-4-hydroxypiperidin-4-yl]-2,2-difluoro-N-methylacetamide]: the viability at 48 h, 25 µM amounted to 1.94%.

Take `CC1CN(C(=O)C(C)Cl)CC(C)O1` (centres unmarked) [5-F04, 2-chloro-1-(2,6-dimethylmorpholin-4-yl)propan-1-one]: the viability at 48 h, 25 µM is 96.1%.

For `CC(C)n1cc(C2=CCCN(C(=O)CCl)CC2)nn1` [5-F05, 2-chloro-1-{4-[1-(propan-2-yl)-1H-1,2,3-triazol-4-yl]-2,3,6,7-tetrahydro-1H-azepin-1-yl}ethan-1-one], the viability at 48 h, 25 µM was found to be 1.75%.

With `CN(Cc1ccc(N(C)C)cc1)C(=O)CCl` [5-F06, 2-chloro-N-{[4-(dimethylamino)phenyl]methyl}-N-methylacetamide hydrochloride], the viability at 48 h, 25 µM stood at 0.499%.

For the compound `CCN(Cc1cccs1)C(=O)CCl` [5-F07, 2-chloro-N-ethyl-N-[(thiophen-2-yl)methyl]acetamide], the viability at 48 h, 25 µM amounted to 1.01%.

On to `CC(Cl)C(=O)Nc1ccc(-c2c[nH]cn2)cc1` (centres unmarked) [5-F08, 2-chloro-N-[4-(1H-imidazol-4-yl)phenyl]propanamide], for which the viability at 48 h, 25 µM is 98.2%.

Consider `CC(C1CC1)N(Cc1ccccc1)C(=O)CCl` (centres unmarked) [5-F09, N-benzyl-2-chloro-N-(1-cyclopropylethyl)acetamide], for which the viability at 48 h, 25 µM is 0.956%.

As to `CC(Cl)C(=O)Nc1ccccc1` (centres unmarked) [5-F10, 2-chloro-N-phenylpropanamide], the viability at 48 h, 25 µM is 91.9%.

As for `CC(Cl)C(=O)N1CCCCCC1` (centres unmarked) [5-F11, 1-(azepan-1-yl)-2-chloropropan-1-one], the viability at 48 h, 25 µM was determined as 105%.

`CC(C1CC1)N(C(=O)CCl)C1CC1` (centres unmarked) [5-F12, 2-chloro-N-cyclopropyl-N-(1-cyclopropylethyl)acetamide]: the viability at 48 h, 25 µM was 1.06%.

`CC(NC(=O)CCl)c1nnc(-c2cccc(F)c2)s1` (centres unmarked) [5-F13, 2-chloro-N-{1-[5-(3-fluorophenyl)-1,3,4-thiadiazol-2-yl]ethyl}acetamide]: the viability at 48 h, 25 µM was determined as 0.963%.

Regarding `CC(CC#N)Sc1ccccc1NC(=O)CCl` (centres unmarked) [5-F14, 2-chloro-N-{2-[(1-cyanopropan-2-yl)sulfanyl]phenyl}acetamide], the viability at 48 h, 25 µM amounted to 1.02%.

Take `CC(Cl)C(=O)N1Cc2ccccc2N(C)C[C@@H]1C` (stereo partly drawn) [5-F15, 2-chloro-1-[(3S)-1,3-dimethyl-2,3,4,5-tetrahydro-1H-1,4-benzodiazepin-4-yl]propan-1-one]: the viability at 48 h, 25 µM came out at 108%.

For the compound `Cc1ccc(-c2csc(NC(=O)CCl)n2)cc1C` [5-F16, 2-chloro-N-[4-(3,4-dimethylphenyl)-1,3-thiazol-2-yl]acetamide], the viability at 48 h, 25 µM was found to be 0.595%.

Take `CC(Cl)C(=O)N1CCN(C(=O)c2cccc(OC(F)F)c2)CC1` (centres unmarked) [5-F17, 2-chloro-1-{4-[3-(difluoromethoxy)benzoyl]piperazin-1-yl}propan-1-one]: the viability at 48 h, 25 µM stood at 106%.

For `CN(CC(=O)Nc1cccc(Cl)c1)C(=O)CCl` [5-F18, 2-chloro-N-{[(3-chlorophenyl)carbamoyl]methyl}-N-methylacetamide], the viability at 48 h, 25 µM is 0.687%.

Consider `CC(Cl)C(=O)Nc1cccc(-c2ncc3n2CCCC3)c1` (centres unmarked) [5-F19, 2-chloro-N-(3-{5H,6H,7H,8H-imidazo[1,5-a]pyridin-3-yl}phenyl)propanamide], for which the viability at 48 h, 25 µM came out at 95.8%.

With `O=C(CCl)NCCc1c(F)cccc1F` [5-F20, 2-chloro-N-[2-(2,6-difluorophenyl)ethyl]acetamide], the viability at 48 h, 25 µM was determined as 15.5%.

For the compound `CC(Cl)C(=O)N1CC(n2cc(C(N)=O)nn2)C1` (centres unmarked) [5-F21, 1-[1-(2-chloropropanoyl)azetidin-3-yl]-1H-1,2,3-triazole-4-carboxamide], the viability at 48 h, 25 µM was 94.6%.

`O=C(CCl)N(Cc1ccccc1)Cc1ccco1` [5-F22, N-benzyl-2-chloro-N-[(furan-2-yl)methyl]acetamide]: the viability at 48 h, 25 µM was 0.693%.

`COc1ccc(NC(C)=O)cc1NC(=O)CCl` [5-G03, 2-chloro-N-(5-acetamido-2-methoxyphenyl)acetamide]: the viability at 48 h, 25 µM stood at 1.44%.

Take `CCC(=O)NC1CCN(C(=O)CCl)C1` (centres unmarked) [5-G04, N-[1-(2-chloroacetyl)pyrrolidin-3-yl]propanamide]: the viability at 48 h, 25 µM is 10.3%.

Consider `CC(Cl)C(=O)Nc1ccccc1C(N)=O` (centres unmarked) [5-G05, 2-(2-chloropropanamido)benzamide], for which the viability at 48 h, 25 µM turned out to be 101%.

On to `Cc1noc(C)c1CN(C)C(=O)CCl` [5-G06, 2-chloro-N-[(3,5-dimethyl-1,2-oxazol-4-yl)methyl]-N-methylacetamide], for which the viability at 48 h, 25 µM stood at 1.87%.
